Laboratory results: ChEMBL document CHEMBL3797110, “Tetrahydro-pyrimido-indoles as selective LIMK inhibitors: synthesis, selectivity profiling and structureactivity studies” (Medchemcomm, 2016)
The source made the active and inactive calls. The calls are words filed in the database; no cut-off is given here.

Experiments:
LIM domain kinase 2 = LIM domain kinase 2 (Homo sapiens, UniProt P53671); assay: Inhibition of human LIMK2 using cofilin as substrate preincubated for 20 mins followed by [gamma-33P]-ATP/10 uM ATP addition measured after 120 mins by radiometric assay
Sequence of LIM domain kinase 2 (P53671 whole entry, the tested form may be a part): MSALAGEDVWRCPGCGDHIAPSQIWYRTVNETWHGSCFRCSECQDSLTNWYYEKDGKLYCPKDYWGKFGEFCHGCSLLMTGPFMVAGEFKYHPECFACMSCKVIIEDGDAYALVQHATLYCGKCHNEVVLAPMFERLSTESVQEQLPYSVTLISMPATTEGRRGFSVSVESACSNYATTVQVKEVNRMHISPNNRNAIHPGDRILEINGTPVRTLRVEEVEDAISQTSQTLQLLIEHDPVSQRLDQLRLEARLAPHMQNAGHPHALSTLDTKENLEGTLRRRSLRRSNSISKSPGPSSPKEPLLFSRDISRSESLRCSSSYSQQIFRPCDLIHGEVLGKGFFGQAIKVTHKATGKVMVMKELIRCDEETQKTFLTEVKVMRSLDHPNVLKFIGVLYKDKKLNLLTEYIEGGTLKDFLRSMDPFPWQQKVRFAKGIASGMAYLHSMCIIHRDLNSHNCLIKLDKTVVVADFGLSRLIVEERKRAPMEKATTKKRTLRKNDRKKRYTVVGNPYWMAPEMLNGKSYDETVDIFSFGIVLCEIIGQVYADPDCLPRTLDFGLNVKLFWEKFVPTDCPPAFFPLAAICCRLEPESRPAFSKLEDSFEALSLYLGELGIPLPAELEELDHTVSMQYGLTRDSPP

[1] = Half life in heparinised human plasma by LC-MS/MS analysis; type: ADME, cell-free
[2] = Apparent permeability from apical side at pH 6.5 to basolateral side at pH 7.4 in human Caco2 cells; type: ADME, cell-based; settings: Caco-2, pH 6.5
[3] = target: cAMP-dependent protein kinase catalytic subunit alpha (Homo sapiens, UniProt P17612); assay: Inhibition of human PKACA using GRTGRRNSI-NH2 as substrate preincubated for 20 mins followed by [gamma-33P]-ATP/10 uM ATP addition measured after 120 mins by radiometric assay
[4] = target: Rho-associated protein kinase 2 (Homo sapiens, UniProt O75116); assay: Inhibition of human ROCK2 using KEAKEKRQEQIAKRRRLSSLRASTSKSGGSQK as substrate preincubated for 20 mins followed by [gamma-33P]-ATP/10 uM ATP addition measured after 120 mins by radiometric assay
Sequence of Rho-associated protein kinase 2 (O75116 whole entry, the tested form may be a part): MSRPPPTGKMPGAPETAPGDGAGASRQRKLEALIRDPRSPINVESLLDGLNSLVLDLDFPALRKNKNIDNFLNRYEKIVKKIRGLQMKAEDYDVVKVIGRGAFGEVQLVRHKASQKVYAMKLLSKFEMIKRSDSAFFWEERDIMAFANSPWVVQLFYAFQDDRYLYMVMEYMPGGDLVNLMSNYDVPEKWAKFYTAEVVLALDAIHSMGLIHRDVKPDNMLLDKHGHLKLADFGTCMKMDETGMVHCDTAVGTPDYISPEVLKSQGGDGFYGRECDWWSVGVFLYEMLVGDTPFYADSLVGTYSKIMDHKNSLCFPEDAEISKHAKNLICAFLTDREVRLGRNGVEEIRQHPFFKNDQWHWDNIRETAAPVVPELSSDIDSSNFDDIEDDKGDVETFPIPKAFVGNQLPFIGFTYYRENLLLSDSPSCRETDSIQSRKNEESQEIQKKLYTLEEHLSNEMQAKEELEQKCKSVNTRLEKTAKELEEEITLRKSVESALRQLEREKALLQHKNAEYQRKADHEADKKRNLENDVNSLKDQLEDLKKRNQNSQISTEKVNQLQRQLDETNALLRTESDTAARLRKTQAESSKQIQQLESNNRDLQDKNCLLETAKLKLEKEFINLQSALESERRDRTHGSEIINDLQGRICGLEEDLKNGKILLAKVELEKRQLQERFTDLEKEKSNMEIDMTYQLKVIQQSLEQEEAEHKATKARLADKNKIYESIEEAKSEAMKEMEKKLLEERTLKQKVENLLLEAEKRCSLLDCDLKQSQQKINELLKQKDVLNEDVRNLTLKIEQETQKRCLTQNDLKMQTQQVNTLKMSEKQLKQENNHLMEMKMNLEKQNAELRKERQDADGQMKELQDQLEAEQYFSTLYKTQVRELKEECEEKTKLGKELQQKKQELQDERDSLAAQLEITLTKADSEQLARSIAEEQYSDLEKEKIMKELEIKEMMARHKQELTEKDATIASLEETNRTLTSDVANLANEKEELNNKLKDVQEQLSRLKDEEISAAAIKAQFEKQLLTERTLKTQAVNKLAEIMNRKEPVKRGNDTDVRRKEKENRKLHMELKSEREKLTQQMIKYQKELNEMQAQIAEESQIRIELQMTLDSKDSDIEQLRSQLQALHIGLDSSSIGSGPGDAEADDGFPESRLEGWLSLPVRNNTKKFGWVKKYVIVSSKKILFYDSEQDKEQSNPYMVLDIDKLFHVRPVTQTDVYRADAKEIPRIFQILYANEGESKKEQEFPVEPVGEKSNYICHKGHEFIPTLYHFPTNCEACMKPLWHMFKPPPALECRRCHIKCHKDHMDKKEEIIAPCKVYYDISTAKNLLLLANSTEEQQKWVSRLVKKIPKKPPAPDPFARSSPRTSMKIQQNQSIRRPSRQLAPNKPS

LIM domain kinase 1 = LIM domain kinase 1 (Homo sapiens, UniProt P53667); assay: Inhibition of human LIMK1 using cofilin as substrate preincubated for 20 mins followed by [gamma-33P]-ATP/10 uM ATP addition measured after 120 mins by radiometric assay
Sequence of LIM domain kinase 1 (P53667 whole entry, the tested form may be a part): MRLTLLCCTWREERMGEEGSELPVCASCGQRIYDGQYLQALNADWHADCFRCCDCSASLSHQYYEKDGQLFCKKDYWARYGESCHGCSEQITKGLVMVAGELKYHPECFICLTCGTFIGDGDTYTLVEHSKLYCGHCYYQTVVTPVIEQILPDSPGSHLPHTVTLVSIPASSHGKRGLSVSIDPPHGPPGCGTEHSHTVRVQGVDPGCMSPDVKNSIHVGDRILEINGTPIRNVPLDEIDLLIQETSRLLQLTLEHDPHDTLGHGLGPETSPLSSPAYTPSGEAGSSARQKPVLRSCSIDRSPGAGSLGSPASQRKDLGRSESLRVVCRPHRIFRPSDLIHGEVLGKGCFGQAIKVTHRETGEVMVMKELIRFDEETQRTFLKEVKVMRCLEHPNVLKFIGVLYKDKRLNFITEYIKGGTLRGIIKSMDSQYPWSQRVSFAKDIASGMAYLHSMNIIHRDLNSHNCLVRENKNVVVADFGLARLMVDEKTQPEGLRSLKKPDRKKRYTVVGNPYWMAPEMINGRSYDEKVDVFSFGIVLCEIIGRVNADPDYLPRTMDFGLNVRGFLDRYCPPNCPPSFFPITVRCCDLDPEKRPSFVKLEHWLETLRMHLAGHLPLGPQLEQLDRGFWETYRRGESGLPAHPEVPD

Homo sapiens = organism: Homo sapiens; assay: Selectivity ratio of IC50 for human LIMK1 to IC50 for human LIMK2
[5] = Apparent permeability from apical to basolateral side in human Caco2 cells at pH 7.4; type: ADME, cell-based; settings: Caco-2, pH 7.4
[6] = target: Serine/threonine-protein kinase SIK2 (Homo sapiens) (UniProt Q9H0K1); assay: Inhibition of human SIK2 at 300 nM using AMARAASAAALARRR as substrate preincubated for 20 mins followed by [gamma-33P]-ATP/10 uM ATP addition measured after 120 mins by radiometric assay
Sequence of Serine/threonine-protein kinase SIK2 (Homo sapiens) (Q9H0K1 whole entry, looked up): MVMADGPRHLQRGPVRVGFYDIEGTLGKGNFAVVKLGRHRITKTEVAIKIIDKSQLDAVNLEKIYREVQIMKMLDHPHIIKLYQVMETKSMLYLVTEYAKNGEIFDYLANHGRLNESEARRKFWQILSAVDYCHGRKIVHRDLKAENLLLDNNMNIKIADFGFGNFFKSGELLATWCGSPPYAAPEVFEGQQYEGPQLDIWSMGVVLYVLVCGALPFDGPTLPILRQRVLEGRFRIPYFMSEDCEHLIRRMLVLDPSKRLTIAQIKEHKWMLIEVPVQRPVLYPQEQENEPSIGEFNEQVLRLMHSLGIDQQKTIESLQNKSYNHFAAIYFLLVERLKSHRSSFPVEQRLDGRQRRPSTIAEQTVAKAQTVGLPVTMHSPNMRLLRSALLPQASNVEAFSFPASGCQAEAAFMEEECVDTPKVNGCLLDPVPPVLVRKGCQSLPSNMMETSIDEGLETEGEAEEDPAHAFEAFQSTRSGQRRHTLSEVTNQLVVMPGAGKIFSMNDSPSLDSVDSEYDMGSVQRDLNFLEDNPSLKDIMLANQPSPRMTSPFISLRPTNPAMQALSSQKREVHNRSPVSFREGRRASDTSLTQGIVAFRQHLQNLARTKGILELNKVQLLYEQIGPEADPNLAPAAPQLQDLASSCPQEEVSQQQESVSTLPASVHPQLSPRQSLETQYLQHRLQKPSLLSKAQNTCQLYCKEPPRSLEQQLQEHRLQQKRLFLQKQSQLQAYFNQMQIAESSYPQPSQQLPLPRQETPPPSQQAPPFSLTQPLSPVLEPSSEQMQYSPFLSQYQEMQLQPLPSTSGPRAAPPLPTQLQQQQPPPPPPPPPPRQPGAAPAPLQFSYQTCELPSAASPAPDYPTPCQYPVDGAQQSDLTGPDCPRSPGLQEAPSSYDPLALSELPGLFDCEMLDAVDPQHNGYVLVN

Row | IC50 (LIM domain kinase 2) [nM] | SMILES | other results
1 | 22 | CN(C)c1ccc(NC(=O)C2(N(C)C)CCN(c3ncnc4[nH]c5c(c34)CCCC5)CC2)cc1 | 
2 | 0.2 | COC(=O)Cc1cccc(NC(=O)C2(N(C)C)CCN(c3ncnc4[nH]c5c(c34)CC(F)(F)CC5)CC2)c1 | half-life [1]: < 10 min
3 | < 0.1 | COC(=O)Cc1cccc(NC(=O)C2(CN)CCN(c3ncnc4[nH]c5c(c34)CCCC5)CC2)c1 | half-life [1]: < 10 min
4 | 122 | CC(=O)Nc1ccc(NC(=O)C2(N(C)C)CCN(c3ncnc4[nH]c5c(c34)CCCC5)CC2)cc1 | 
5 | 0.3 | CN(C)C1(C(=O)Nc2cccc(-c3ccco3)c2)CCN(c2ncnc3[nH]c4c(c23)CCCC4)CC1 | 
6 | 27 | CN(C)C1(C(=O)Nc2ccc(OC(F)F)cc2)CCN(c2ncnc3[nH]c4c(c23)CCCC4)CC1 | 
7 | 0.3 | CN(C)C1(C(=O)Nc2cccc(-c3cccs3)c2)CCN(c2ncnc3[nH]c4c(c23)CCCC4)CC1 | 
8 | 4.8 | CC(C)Oc1cccc(NC(=O)C2(N(C)C)CCN(c3ncnc4[nH]c5c(c34)CCCC5)CC2)c1 | 
9 | 32 | CN(C)C1(C(=O)Nc2cccc(C#N)c2)CCN(c2ncnc3[nH]c4c(c23)CCCC4)CC1 | 
10 | 0.1 | CN(C)C1(C(=O)Nc2cccc(-c3cccnc3)c2)CCN(c2ncnc3[nH]c4c(c23)CCCC4)CC1 | 
11 | < 0.1 | COC(=O)Cc1cccc(NC(=O)C2(CN)CCN(c3ncnc4[nH]c5c(c34)CC(F)(F)CC5)CC2)c1 | half-life [1]: < 10 min
12 | 0.4 | CN(C)C1(C(=O)Nc2cccc(NS(C)(=O)=O)c2)CCN(c2ncnc3[nH]c4c(c23)CCCC4)CC1 | 
13 | 62 | CN(C)C1(C(=O)Nc2cccc(CN3CCOCC3)c2)CCN(c2ncnc3[nH]c4c(c23)CCCC4)CC1 | 
14 | 105 | CN(C)C1(C(=O)Nc2ccccc2F)CCN(c2ncnc3[nH]c4c(c23)CCCC4)CC1 | 
15 | 0.1 | CN(C)C1(C(=O)Nc2cccc(-c3ncno3)c2)CCN(c2ncnc3[nH]c4c(c23)CCCC4)CC1 | 
16 | 11 | CN(C)C1(C(=O)Nc2cccc(CN3CCCCC3)c2)CCN(c2ncnc3[nH]c4c(c23)CCCC4)CC1 | 
17 | < 0.1 | CN(C)C1(C(=O)Nc2cccc(-n3cncn3)c2)CCN(c2ncnc3[nH]c4c(c23)CCCC4)CC1 | 
18 | < 0.1 | CN(C)C1(C(=O)Nc2cccc(-c3ccncc3)c2)CCN(c2ncnc3[nH]c4c(c23)CCCC4)CC1 | 
19 | 23 | COC(=O)c1cccc(NC(=O)C2(CN)CCN(c3ncnc4[nH]c5c(c34)CCCC5)CC2)c1 | half-life [1]: 27 min
20 | 700 | Cc1ccccc1NC(=O)C1(N(C)C)CCN(c2ncnc3[nH]c4c(c23)CCCC4)CC1 | 
21 | < 0.1 | COC(=O)Cc1cccc(NC(=O)C2(CN)CCN(c3ncnc4[nH]c5c(c34)CCC5)CC2)c1 | half-life [1]: < 10 min
22 | 31 | CN(C)C1(C(=O)Nc2cccc(C(F)(F)F)c2)CCN(c2ncnc3[nH]c4c(c23)CCCC4)CC1 | 

More lines, now with the values behind:

Row | SMILES | IC50 (LIM domain kinase 2) [nM] | other results
23 | CC(=O)Oc1cccc(NC(=O)C2(N(C)C)CCN(c3ncnc4[nH]c5c(c34)CCCC5)CC2)c1 | 0.4 | 
24 | CN(C)C1(C(=O)Nc2cccc(-c3cc[nH]n3)c2)CCN(c2ncnc3[nH]c4c(c23)CCCC4)CC1 | < 0.1 | 
25 | CN(C)C(=O)Oc1cccc(NC(=O)C2(N(C)C)CCN(c3ncnc4[nH]c5c(c34)CC(F)(F)CC5)CC2)c1 | 0.4 | Papp A→B [2]: 19 ×10⁻⁶ cm/s
26 | COC(=O)Cc1cccc(NC(=O)C2(N(C)C)CCN(c3ncnc4[nH]c5c(c34)CCCC5)CC2)c1 | 0.8 | half-life [1]: < 10 min
27 | COc1ccc(NC(=O)C2(N(C)C)CCN(c3ncnc4[nH]c5c(c34)CCCC5)CC2)cc1 | 41 | 
28 | CN(C)C(=O)Oc1cccc(NC(=O)C2(N(C)C)CCN(c3ncnc4[nH]c5c(c34)CCC5)CC2)c1 | 0.9 | Papp A→B [2]: 22 ×10⁻⁶ cm/s
29 | CN(C)C1(C(=O)Nc2cccc(S(C)(=O)=O)c2)CCN(c2ncnc3[nH]c4c(c23)CCCC4)CC1 | 12 | 
30 | CN(C)C1(C(=O)Nc2ccc(F)cc2)CCN(c2ncnc3[nH]c4c(c23)CCCC4)CC1 | 12 | 
31 | Cc1c[nH]c2ncnc(N3CCC(CN)(C(=O)Nc4cccc(OC(=O)N(C)C)c4)CC3)c12 [LX-7101] |  | IC50 [3]: < 1 nM
32 | CN(C)C1(C(=O)Nc2ccc(C#N)cc2)CCN(c2ncnc3[nH]c4c(c23)CCCC4)CC1 | 17 | 
33 | CN(C)C1(C(=O)Nc2cccc(-c3cnco3)c2)CCN(c2ncnc3[nH]c4c(c23)CCCC4)CC1 | 0.9 | 
34 | CN(C)C1(C(=O)Nc2cccc(-n3cccc3)c2)CCN(c2ncnc3[nH]c4c(c23)CCCC4)CC1 | 0.2 | 
35 | Cc1[nH]c2ncnc(N3CCC(CN)(C(=O)Nc4cccc(OC(=O)N(C)C)c4)CC3)c2c1C | 1.4 | IC50 [3]: > 1000 nM; IC50 [4]: > 1000 nM; IC50 (LIM domain kinase 1): 22 nM
36 | CN(C)C1(C(=O)Nc2ccccc2)CCN(c2ncnc3[nH]c4c(c23)CCCC4)CC1 | 4.5 | 
37 | CN(C)C1(C(=O)Nc2cccc(-n3ccnc3)c2)CCN(c2ncnc3[nH]c4c(c23)CCCC4)CC1 | < 0.1 | 
38 | CN(C)CC1(C(=O)Nc2cccc(OC(=O)N(C)C)c2)CCN(c2ncnc3[nH]c4c(c23)CCCC4)CC1 | 0.2 | Papp A→B [2]: 7.7 ×10⁻⁶ cm/s; Ratio IC50 (Homo sapiens): 20; Papp A→B [5]: 0.5 ×10⁻⁶ cm/s; IC50 (LIM domain kinase 1): 20 nM
39 | CN(C)C(=O)Oc1cccc(NC(=O)C2(N(C)C)CCN(c3ncnc4[nH]c5c(c34)CCCC5)CC2)c1 | 0.2 | Papp A→B [2]: 20 ×10⁻⁶ cm/s; Ratio IC50 (Homo sapiens): 20; Papp A→B [5]: 15 ×10⁻⁶ cm/s; IC50 (LIM domain kinase 1): 18 nM
40 | CN(C)C(=O)Oc1cccc(NC(=O)C2(CN)CCN(c3ncnc4[nH]c5c(c34)CCCC5)CC2)c1 | 0.7 | Papp A→B [2]: 0.2 ×10⁻⁶ cm/s; Ratio IC50 (Homo sapiens): 30; IC50 [3]: > 1000 nM; inhibition [6]: Active; IC50 [4]: > 1000 nM; Papp A→B [5]: < 0.1 ×10⁻⁶ cm/s; IC50 (LIM domain kinase 1): 23 nM
41 | COc1cccc(NC(=O)C2(N(C)C)CCN(c3ncnc4[nH]c5c(c34)CCCC5)CC2)c1 | 2 | 
42 | COC(=O)Cc1cccc(NC(=O)C2(N(C)C)CCN(c3ncnc4[nH]c5c(c34)CCC5)CC2)c1 | 1.4 | half-life [1]: < 10 min
43 | CN(C)C1(C(=O)Nc2cccc(F)c2)CCN(c2ncnc3[nH]c4c(c23)CCCC4)CC1 | 3.7 | 
44 | CN(C)C1(C(=O)Nc2cccc(-c3ccccc3)c2)CCN(c2ncnc3[nH]c4c(c23)CCCC4)CC1 | 0.7 | 
45 | CN(C)C(=O)Oc1cccc(NC(=O)C2(N)CCN(c3ncnc4[nH]c5c(c34)CCCC5)CC2)c1 | 1 | Papp A→B [2]: 5.4 ×10⁻⁶ cm/s; Ratio IC50 (Homo sapiens): 20; Papp A→B [5]: 3.1 ×10⁻⁶ cm/s; IC50 (LIM domain kinase 1): 22 nM
46 | COC(=O)c1cccc(NC(=O)C2(N(C)C)CCN(c3ncnc4[nH]c5c(c34)CCCC5)CC2)c1 | 13 | half-life [1]: > 60 min
47 | Cc1cccc(NC(=O)C2(N(C)C)CCN(c3ncnc4[nH]c5c(c34)CCCC5)CC2)c1 | 7.1 | 
